This is an account of results in patent US5336673A, “3-substituted cephem compounds” (priority 1990, dated 1994).

Assay [1] deals with Gram-positive strains, for example, Staphylococcus aureus. Briefly: Antibacterial activity against Gram-positive strains (summary in words). The settings on record: e.g. Staphylococcus aureus resistant to third-generation cephalosporins. The assay is classed as cell-based. The method, then:
(§1) The antibacterial activity was determined by an Agar dilution method as described below.
(§2) That is, the two-fold serial dilutions of the antibacterial compounds (1000 μg compound/ml) were prepared and dispersed in Muller Hinton Agar in a petri dish to a concentration of 100~0.002 μg/ml. The culture broths of standard test strains were inoculated on the medium to a concentration 10^7 CFU/ml, and incubated at 37° C. for 18 hours. The concentration of compounds(I) at which the strains were not grown was regarded as minimum inhibition concentration (MIC).

Assay [2] has as its system Escherichia coli 1507E. Briefly: Antibacterial activity, MIC by Agar dilution method, standard test strain 11. The class given is cell-based. The settings on record: Escherichia coli, 1507E, 18 h. On the procedure: as §1, §2
(§3) The results of antibacterial activity test of the representative examples of the compound (I) against 20 standard test strains shown in terms of MIC were indicated in Table 1.
(In general: In agar dilution the substance is mixed into plates at graded concentrations.)

In assay [3] the test system is Escherichia coli TEM. As to the kind of experiment: Antibacterial activity, MIC by Agar dilution method, standard test strain 10. The class given is cell-based. The following applies: Escherichia coli TEM; 10^7 CFU/ml, 37° C., 18 hours; read-out: MIC. On the procedure: as §1, §2, §3
Assay [4] has as its system Staphylococcus aureus 503. Briefly: Antibacterial activity, MIC by Agar dilution method, standard test strain 6. The class given is cell-based. The settings on record: 10^7 CFU/ml, 37° C., 18 hours. The method, then: as §1, §2, §3
6. Staphylococcus aureus 503

The target of assay [5] is T1, β-lactamase from Enterobacter cloacae P99 (Enterobacter cloacae, UniProt P05364).
T1 construct: directly isolated from Enterobacter cloacae P99, E. coli TEM and Citrobacter freundii; endogenous in cells; host or cells: Enterobacter cloacae P99
T1 sequence (P05364 21-381): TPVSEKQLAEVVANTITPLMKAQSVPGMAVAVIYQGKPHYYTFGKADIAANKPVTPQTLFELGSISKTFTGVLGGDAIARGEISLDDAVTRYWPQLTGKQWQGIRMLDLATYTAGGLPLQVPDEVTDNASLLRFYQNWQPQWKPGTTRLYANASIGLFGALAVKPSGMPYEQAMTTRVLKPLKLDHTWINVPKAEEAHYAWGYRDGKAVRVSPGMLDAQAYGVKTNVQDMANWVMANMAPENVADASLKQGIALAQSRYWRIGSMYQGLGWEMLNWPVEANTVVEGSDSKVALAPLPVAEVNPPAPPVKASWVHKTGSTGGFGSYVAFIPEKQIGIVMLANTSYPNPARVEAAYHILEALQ
Briefly: Stability against β-lactamase, relative hydrolysis. The class given is biochemical. The settings on record: Enterobacter cloacae P99 enzyme; 100 μM; relative(percentage), Cephaloridine taken as 100; OD at 260 nm. The method, then: The β-lactamases employed in the test were directly isolated from Enterobacter cloacae P99, E. coli TEM and Citrobacter freundii, and the antibiotics for comparison were Cephaloridine, Cephradine, Cefoperazone and Cefotaxime.
The relative hydrolysis of various compounds were calculated relative to the OD of Cephaloridine.

In assay [6] the test system is Salmonella typhimurium. Briefly: Antibacterial activity, MIC by Agar dilution method, standard test strain 16. The assay is classed as cell-based. The following applies: Salmonella enterica, 10^7 CFU/ml, 37° C., 18 hours. The method, then:
as §1, §2, §3
16. Salmonella typhimurium

For assay [7], the system named is Pseudomonas aeruginosa 1592E. Briefly: Antibacterial activity, MIC by Agar dilution method, standard test strain 13. The assay is classed as cell-based. The settings on record: 10^7 CFU/ml, 37° C., 18 hours. On the procedure:
as §1, §2, §3
13. Pseudomonas aeruginosa 1592E

For assay [8], the system named is Streptococcus pyogenes 77A. As to the kind of experiment: Treatment effect on systemic infection model. The settings on record: im, read-out: PD50. The class given is in vivo. On the procedure:
The antibacterial activity test on systemic infection model was carried out using the compound of Example 18 as follows: 0.3 ml of diluted solution containing lethal dose of strain was administered intraperitoneally to the test animal, and then 5 to 0.078 mg/kg of compound was administered intramuscularly.

For assay [9], the system named is Pseudomonas aeruginosa 1771M. Briefly: Antibacterial activity, MIC by Agar dilution method, standard test strain 15. The following applies: 18 h. The assay is classed as cell-based. The method, then: as §1, §2, §3
15. Pseudomonas aeruginosa 1771M

Assay [10] has as its system Streptococcus faecium MD 86. As to the kind of experiment: Antibacterial activity, MIC by Agar dilution method, standard test strain 3. The assay is classed as cell-based. The following applies: Enterococcus faecium, MD86, 10^7 CFU/ml, 37° C., 18 hours. On the procedure:
as §1, §2, §3
3. Streptococcus faecium MD 86

Assay [11] relates to Streptococcus pyogenes A 308. Briefly: Antibacterial activity, MIC by Agar dilution method, standard test strain 1. The assay is classed as cell-based. The settings on record: A308, 10^7 CFU/ml, 37° C., 18 hours. On the procedure:
as §1, §2, §3
1. Streptococcus pyogenes A 308

For assay [12], the system named is Proteus mirabilis. Briefly: MIC against clinically isolated strains. The assay is classed as cell-based. The following applies: 18 h, 4 clinical isolates. On the procedure: as §1, §2
Assay [13] relates to Klebsiella aerogenes 1522E. Briefly: Antibacterial activity, MIC by Agar dilution method, standard test strain 18. The class given is cell-based. The following applies: Klebsiella aerogenes, 1522E, 18 h. The method, then: as §1, §2, §3
18. Klebsiella aerogenes 1522E

In assay [14] the test system is Enterobacter cloacae 1321E. Briefly: Antibacterial activity, MIC by Agar dilution method, standard test strain 20. The class given is cell-based. The settings on record: Enterobacter cloacae, 1321E, 18 h. On the procedure:
as §1, §2, §3
20. Enterobacter cloacae 1321E

Assay [15] concerns Pseudomonas aeruginosa 9027. Briefly: Antibacterial activity, MIC by Agar dilution method, standard test strain 12. The assay is classed as cell-based. The settings on record: 10^7 CFU/ml, 37° C., 18 hours. On the procedure:
as §1, §2, §3
12. Pseudomonas aeruginosa 9027

Assay [16] has as its system Escherichia coli DC 2. Briefly: Antibacterial activity, MIC by Agar dilution method, standard test strain 9. The class given is cell-based. The settings on record: Escherichia coli, DC2, 18 h. On the procedure:
as §1, §2, §3

For assay [17], the system named is Enterobacter cloacae P99. As to the kind of experiment: Antibacterial activity, MIC by Agar dilution method, standard test strain 19. The class given is cell-based. The following applies: P99, 18 h. On the procedure: as §1, §2, §3
19. Enterobacter cloacae P99

Assay [18] relates to Escherichia coli O 55. Briefly: Antibacterial activity, MIC by Agar dilution method, standard test strain 7. The class given is cell-based. The settings on record: Escherichia coli, O55, 18 h. The method, then: as §1, §2, §3
Assay [19] has as its system Staphylococcus aureus SG 511. Briefly: Antibacterial activity, MIC by Agar dilution method, standard test strain 4. The assay is classed as cell-based. The following applies: SG511, 10^7 CFU/ml, 37° C., 18 hours. The method, then:
as §1, §2, §3
4. Staphylococcus aureus SG 511

In brackets after ≈: the same amount, converted by molar mass.

Take `CON=C(C(=O)NC1C(=O)N2C(C(=O)[O-])=C(C[n+]3nn(N)c4ccccc43)CSC12)c1csc(N)n1` [Example 18, (6R,7R)-7-[(Z)-2-(2-aminothiazol-4-yl)-2-methoxyiminoacetamido]-3-[(1-aminobenzotriazol-3-ium)methyl]-ceph-3-em-4-carboxylate]: the “antibacterial activity (in words)” value in assay [1] is on record as “strong activity”. The minimal inhibitory concentration (MIC) (usually the lowest concentration that inhibits growth of the organism) in [2] worked out at 0.025 µg/mL (≈ 0.0472 µM); in [3] it was 0.013 µg/mL (≈ 0.0245 µM); in assay [4], 0.195 µg/mL (≈ 0.368 µM); in assay [6], 0.195 µg/mL (≈ 0.368 µM); in assay [7], 1.56 µg/mL (≈ 2.95 µM); in assay [9], 0.781 µg/mL (≈ 1.47 µM). Moreover, the MIC is greater than 100 µg/mL in [10]; 0.004 µg/mL (≈ 0.00755 µM) in assay [11]; 0.013 to 0.098 µg/mL (≈ 0.0245 to 0.185 µM) in [12]; 0.025 µg/mL (≈ 0.0472 µM) in [13]; 0.007 µg/mL (≈ 0.0132 µM) in assay [14]; 3.12 µg/mL (≈ 5.9 µM) in assay [15]. Further, the MIC came out at 0.025 µg/mL (≈ 0.0472 µM) in assay [16], 12.5 µg/mL (≈ 23.6 µM) in assay [17], 0.007 µg/mL (≈ 0.0132 µM) in assay [18] and 0.391 µg/mL (≈ 0.738 µM) in [19]. Also, the “Relative hydrolysis by β-lactamase” value in [5] stood at 0.0. Further, the ED50 in [8] was 0.27 mg/kg. Moreover, the MIC50 (commonly the lowest concentration that inhibits either 50% of growth or 50% of the strains tested, depending on the study) in assay [12] was determined as 0.013 µg/mL (≈ 0.0245 µM). Besides, the MIC90 (in general, an inhibitory concentration at the 90% level, which refers to growth in some studies and to a panel of isolates in others) in assay [12] is 0.098 µg/mL (≈ 0.185 µM).
